System: chronic hepatitis B (CHB) patients
Experiment: Onset of clinical relapse after stop of NA treatment (Cox proportional hazard regression)
Format: in vivo, human
Conditions: entecavir compared to tenofovir; among the 110 clinical relapsers
Source text: Patients and Study Design: In this multi-center prospective study in Taiwan, 242 CHB patients were enrolled while in their last half year of a minimum 3-year treatment regimen with direct antivirals. Of them, 47 were excluded due to protocol violation, screening failure, lost to follow-up, withdrawal by the subject, use of immune related therapy, or on-treatment clinical relapse. An additional 14 were excluded as the analysis required patients to be hepatitis B e-antigen (HBeAg) negative, hepatitis virus (HBV) DNA <60 IU/mL, and alanine transaminase (ALT) <80 U/L at the last on-treatment visit, leaving […] patients eligible for analysis. […] Cumulative incidence of virological and clinical relapse after stop of treatment was assessed by Kaplan-Meier curves (FIGS. 1A and 1B). […] Statistical Analysis of HLA Data: The association between the HLA alleles (at two and four digits resolution for each locus) and diversity (genetic homozygosity and HED score, independently) and onset of relapse was assessed using a Cox model (Harrell et al., JAMA: The Journal of the American Medical Association, 1982, 247: 2543) including HBsAg level at the last visit on treatment (high (≥100 IU/mL) vs. low (<100 IU/mL)) and the antiviral treatment at enrolment (tenofovir vs. entecavir) as main effects. […]

SMILES: C=C1[C@H](CO)[C@@H](O)C[C@@H]1n1cnc2c(=O)[nH]c(N)nc21 [entecavir]
- onset of clinical relapse later after stopping treatment, on average: 100 days
